Tested on: 991263-137-R1-J2-PDC complex spheroid viability
Assay: Anticancer human tumor 991263-137-R1-J2-PDC patient-derived colon adenocarcinoma cell line growth inhibition [POLQ]
Settings: for IC50: curve of first compound; for viability, T/C: stronger effect = lower value
Procedure: Multicellular complex tumor spheroid response to Polymerase (POL) inhibitors (novobiocin, ART-558, RP6685) in combination with a variety of drugs and investigational agents in selected tumor cell lines
The POL inhibitors (novobiocin, ART-558, and RP6685) were evaluated both individually and in combination with standard of care and investigational anticancer small molecules within a complex spheroid model of solid tumors. . Complex spheroids include a stromal component modeled by human endothelial cells (HUVEC) and fibroblasts modeled by human mesenchymal stem cells (MSCs). The concentration ranges selected for each drug and investigational agent were based upon clinically achievable concentrations if the clinical Cmax of the agent was known.
Compounds. The drugs and investigational agents: novobiocin (NSC847541), ART-558 (NSC835418), RP-6685 (NSC848927), peposertib (NSC802822), ceralasertib (NSC780249), elimusertib (NSC800525), camonsertib (NSC841442), AZD-1390 (NSC803789), olaparib (NSC753686), talazoparib (NSC767125), rucaparib (NSC756644), sotorasib (NSC818433), MRTX-1133 (NSC836407), SN-38 (NSC673596), topotecan (NSC609699), epotoside (NSC141540), doxorubicin (NSC123127), gemcitabine (NSC613327), 5-fluorouracil (NSC19893), paclitaxel (NSC125973), vemurafenib (NSC761431), MSA-2 (NSC828583), SN-011 (NSC837082), adavosertib (NSC754352), prexasertib (NSC758257), carboplatin (NSC241240) and oxaliplatin (NSC266046), were obtained from the National Cancer Institute (NCI) Developmental Therapeutics Program Chemical Repository (21). The FDA-approved anticancer drug set is available from the Developmental Therapeutics Program at https://dtp.cancer.gov/organization/dscb/obtaining/. […] The stock solutions were prepared in dimethyl sulfoxide (DMSO, Sigma-Aldrich, St. Louis, MO, cat. D2650), except for the platinum compounds which were prepared in saline (Quality Biological, Gaithersburg, MD, cat. 114-055-101), at 800-fold the tested concentration and stored at -70 degrees C prior to their use. All drugs and investigational agents were tested over a range starting from a high concentration at or near the clinical Cmax and decreasing in half-log increments. If the clinical Cmax for an agent had not been determined, the highest concentration tested was 10 microM, except for SN-38, which was tested at a high concentration of 1 microM.
Cell Culture. All cells were maintained in an incubator at 37 degrees C and 5% CO2 with 95% humidity. The PDC lines were cultured according to standard operating procedures established by the NCI PDMR (https://pdmr.cancer.gov). Table 3 of the manuscript, lists the cell lines along with the number of the three cell types plated to form the mct-spheroids and media for tumor cell growth. After thawing, all PDC lines, except 997537-175-T-J1-PDC and 415267-285-R-J2-PDC, were cultured in Matrigel-coated flasks prepared with a working solution of 1X Ham's F-12 nutrient mix, without supplementation (Thermo Fisher Scientific, cat. 11765054), 100 U/mL penicillin-streptomycin (Thermo Fisher Scientific, cat. 15140122), and 2.5% Matrigel (Corning Inc., Corning, NY, cat. 354248) for the first three passages. The two PDC lines 997537-175-T-J1-PDC and 415267-285-R-J2-PDC were cultured on uncoated flasks. The 857933-349-R-J2-PDC line was cultured in 6C/Colon 1B media containing advanced DMEM/F-12 (Thermo Fisher Scientific, cat. 12634028), 10 mM HEPES (Thermo Fisher Scientific, cat. 15630080), 1X GlutaMAX supplement (Thermo Fisher Scientific, cat. 35050061), 0.1 mg/mL primocin (InvivoGen, San Diego, CA, cat. ant-pm-2), 10% defined fetal bovine serum, heat inactivated (HyClone Laboratories Inc., Logan, UT, cat. SH30070.03HI), 50% L-WRN conditioned media (ATCC, cat. CRL-3276), 1.25 mM N-Acetyl-L-cysteine (Sigma-Aldrich, cat. A9165), 10 mM nicotinamide (Sigma-Aldrich, cat. N0636), 1X B-27 supplement (Thermo Fisher Scientific, cat. 17504044), 1X N-2 supplement (Thermo Fisher Scientific, cat. […]

[1] = second compound 0.0316 µM, first compound 0.0316 µM
[2] = second compound 0.0316 µM, first compound 0.1 µM
[3] = second compound 0.1 µM, first compound 0.0316 µM
[4] = second compound 0.1 µM, first compound 0.1 µM
[5] = second compound 0.316 µM, first compound 0.0316 µM
[6] = second compound 0.316 µM, first compound 0.1 µM
[7] = second compound 1 µM, first compound 0.0316 µM
[8] = second compound 1 µM, first compound 0.1 µM
[9] = second compound 3.16 µM, first compound 0.0316 µM
[10] = second compound 3.16 µM, first compound 0.1 µM
[11] = second compound 10 µM, first compound 0.0316 µM
[12] = second compound 10 µM, first compound 0.1 µM
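Note: spheroids exposed to compounds for 7 days before readout.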
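Throughout, for viability, T/C: 100% = DMSO vehicle control viability.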

For CC[C@@]1(O)C(=O)OCc2c1cc1n(c2=O)Cc2cc3c(CN(C)C)c(O)ccc3nc2-1 + COC1C(OC(N)=O)C(O)C(Oc2ccc3c(O)c(NC(=O)c4ccc(O)c(CC=C(C)C)c4)c(=O)oc3c2C)OC1(C)C, the IC50 (second compound 0.0316 µM) was > 100 nM, the IC50 (second compound 0.1 µM) was > 100 nM and the IC50 (second compound 0.316 µM) was > 100 nM. The IC50 (second compound 1 µM) was > 100 nM, the IC50 (second compound 3.16 µM) was > 100 nM and the IC50 (second compound 10 µM) was > 100 nM. The viability, T/C (second compound 0.0316 µM, first compound 0.000316 µM) was 103%, the viability, T/C (second compound 0.0316 µM, first compound 0.001 µM) was 103% and the viability, T/C (second compound 0.0316 µM, first compound 0.00316 µM) was 106%. The viability, T/C (second compound 0.0316 µM, first compound 0.01 µM) was 103%, the viability, T/C [1] was 100% and the viability, T/C [2] was 87.3%. For the same molecule, the viability, T/C (second compound 0.1 µM, first compound 0.000316 µM) was 105%, the viability, T/C (second compound 0.1 µM, first compound 0.001 µM) was 125% and the viability, T/C (second compound 0.1 µM, first compound 0.00316 µM) was 98.3%. It also gave a viability, T/C (second compound 0.1 µM, first compound 0.01 µM) of 79.6%, a viability, T/C [3] of 86.4% and a viability, T/C [4] of 71.4%. It also gave a viability, T/C (second compound 0.316 µM, first compound 0.000316 µM) of 110%, a viability, T/C (second compound 0.316 µM, first compound 0.001 µM) of 110% and a viability, T/C (second compound 0.316 µM, first compound 0.00316 µM) of 107%. For the same molecule, the viability, T/C (second compound 0.316 µM, first compound 0.01 µM) was 100%, the viability, T/C [5] was 102% and the viability, T/C [6] was 84.5%. It also gave a viability, T/C (second compound 1 µM, first compound 0.000316 µM) of 82.4%, a viability, T/C (second compound 1 µM, first compound 0.001 µM) of 106% and a viability, T/C (second compound 1 µM, first compound 0.00316 µM) of 97.7%. For the same molecule, the viability, T/C (second compound 1 µM, first compound 0.01 µM) was 93.2%, the viability, T/C [7] was 75.7% and the viability, T/C [8] was 86.4%. It also gave a viability, T/C (second compound 3.16 µM, first compound 0.000316 µM) of 93.9%, a viability, T/C (second compound 3.16 µM, first compound 0.001 µM) of 107% and a viability, T/C (second compound 3.16 µM, first compound 0.00316 µM) of 104%. It also gave a viability, T/C (second compound 3.16 µM, first compound 0.01 µM) of 112%, a viability, T/C [9] of 98.6% and a viability, T/C [10] of 87.7%. It also gave a viability, T/C (second compound 10 µM, first compound 0.000316 µM) of 92.8%, a viability, T/C (second compound 10 µM, first compound 0.001 µM) of 114% and a viability, T/C (second compound 10 µM, first compound 0.00316 µM) of 99.1%. The viability, T/C (second compound 10 µM, first compound 0.01 µM) was 95.3%, the viability, T/C [11] was 110% and the viability, T/C [12] was 88.5%.

CC1COCCN1c1cc(C2(O)CC3CCC(C2)O3)c2cnn(-c3ccn[nH]3)c2n1 (centres undefined) + Cc1cccc(N(C)C(=O)C2C(O)CCN2c2nc(C)cc(C(F)(F)F)c2C#N)c1 showed an IC50 (second compound 0.0316 µM) of 1240 nM, an IC50 (second compound 0.1 µM) of 2180 nM and an IC50 (second compound 0.316 µM) of 1640 nM. It also gave an IC50 (second compound 1 µM) of 3120 nM, an IC50 (second compound 3.16 µM) of 2570 nM and an IC50 (second compound 10 µM) of 959 nM. For the same molecule, the viability, T/C [1] was 107%, the viability, T/C [2] was 84.8% and the viability, T/C (second compound 0.0316 µM, first compound 0.316 µM) was 67.5%. For the same molecule, the viability, T/C (second compound 0.0316 µM, first compound 1 µM) was 55.8%, the viability, T/C (second compound 0.0316 µM, first compound 3.16 µM) was 35.8% and the viability, T/C (second compound 0.0316 µM, first compound 10 µM) was 30.1%. It also gave a viability, T/C [3] of 110%, a viability, T/C [4] of 103% and a viability, T/C (second compound 0.1 µM, first compound 0.316 µM) of 82.3%. For the same molecule, the viability, T/C (second compound 0.1 µM, first compound 1 µM) was 61.1%, the viability, T/C (second compound 0.1 µM, first compound 3.16 µM) was 46.4% and the viability, T/C (second compound 0.1 µM, first compound 10 µM) was 29.2%. The viability, T/C [5] was 107%, the viability, T/C [6] was 110% and the viability, T/C (second compound 0.316 µM, first compound 0.316 µM) was 75.9%. The viability, T/C (second compound 0.316 µM, first compound 1 µM) was 59.2%, the viability, T/C (second compound 0.316 µM, first compound 3.16 µM) was 42.5% and the viability, T/C (second compound 0.316 µM, first compound 10 µM) was 28.3%. For the same molecule, the viability, T/C [7] was 92%, the viability, T/C [8] was 98.2% and the viability, T/C (second compound 1 µM, first compound 0.316 µM) was 87.1%. For the same molecule, the viability, T/C (second compound 1 µM, first compound 1 µM) was 67.4%, the viability, T/C (second compound 1 µM, first compound 3.16 µM) was 52.5% and the viability, T/C (second compound 1 µM, first compound 10 µM) was 28.6%. For the same molecule, the viability, T/C [9] was 93.4%, the viability, T/C [10] was 85.5% and the viability, T/C (second compound 3.16 µM, first compound 0.316 µM) was 74.4%. For the same molecule, the viability, T/C (second compound 3.16 µM, first compound 1 µM) was 61.6%, the viability, T/C (second compound 3.16 µM, first compound 3.16 µM) was 47.4% and the viability, T/C (second compound 3.16 µM, first compound 10 µM) was 34.6%. For the same molecule, the viability, T/C [11] was 90.9%, the viability, T/C [12] was 98.8% and the viability, T/C (second compound 10 µM, first compound 0.316 µM) was 75.2%. The viability, T/C (second compound 10 µM, first compound 1 µM) was 48.2%, the viability, T/C (second compound 10 µM, first compound 3.16 µM) was 37.7% and the viability, T/C (second compound 10 µM, first compound 10 µM) was 25.9%.
